Assay results as given in paper PMC8883597 (Xenobiotica; the fate of foreign compounds in biological …, 2021).
Where two headings read alike, the source gives them in different places. Values belong to the molecule of their own block, whether it stands above or below them.

Assays:
[1] = rat, in vivo
[2] = male, Sprague Dawley, rat, in vivo, iv, 2.25 mg/kg
[3] = Toxicokinetics in plasma after a single gavage administration; details: male rats
[4] = system: rats; details: ref Hirata-Koizumi et al., 2008b, cited from earlier work
[5] = male, Sprague Dawley, rat, in vivo
[6] = rat, in vivo, 10 mg/kg; cited from earlier work
[7] = male, Sprague Dawley, po, 30 mg/kg
[8] = male, Sprague Dawley, po, 300 mg/kg
[9] = male, Sprague Dawley, 300 mg/kg

time points where plasma concentrations were below LOD ([1]; male, Sprague Dawley, 30 mg/kg): 0.0333 h | AUC [1, 7]: 21000 ± 5300 ng·h/mL | Cmax [1, 7]: 2020 ± 490 ng/mL | Half-life (beta half-life) [1, 7]: 48.4 ± 116 h | Tmax [1, 7]: 3.08 ± 0.77 h | AUC [1, 8]: 41600 ± 11600 ng·h/mL | Cmax [1, 8]: 2450 ± 710 ng/mL | Half-life (beta half-life) [1, 8]: 37.5 ± 401 h | Tmax [1, 8]: 5.06 ± 1.24 h
Structure (SMILES): Cc1cc(-n2nc3ccc(Cl)cc3n2)c(O)c(C(C)(C)C)c1 [Bumetrizole, 2-(5-chloro-2H-1,2,3-benzotriazol-2-yl)-6-(1,1-dimethylethyl)-4-methylphenol]

Half-life (beta half-life) ([1]; male, Sprague Dawley, 30 mg/kg): 1120 ± 5780 h | Cmax [1, 7]: 138 ± 1900 ng/mL | Tmax [1, 7]: 0.0196 ± 24.6 h | AUC [1, 8]: 29800 ± 14700 ng·h/mL | Cmax [1, 8]: 358 ± 26 ng/mL | Half-life (beta half-life) [1, 8]: 103 ± 72 h | plasma elimination half-life (beta half-life) [1, 8]: 103 to 1120 h
Structure (SMILES): Cc1ccc(O)c(-n2nc3ccccc3n2)c1 [Drometrizole, 2-(2H-Benzotriazol-2-yl)-4-methylphenol]

Structure (SMILES): CC(C)(C)CC(C)(C)c1ccc(O)c(-n2nc3ccccc3n2)c1 [Octrizole, 2-(2H-Benzotriazol-2-yl)-4-(1,1,3,3-tetramethylbutyl)phenol]
AUC [2]: 3510 ± 440 ng·h/mL | Cmax [2]: 20600 ± 7800 ng/mL | Half-life (gamma half-life) [2]: 15.4 ± 2.4 h | AUC [1, 7]: 5980 ± 1950 ng·h/mL | Cmax [1, 7]: 561 ± 170 ng/mL | Half-life (beta half-life) [1, 7]: 56.8 ± 233 h | Tmax [1, 7]: 3.71 ± 1.08 h | AUC [1, 8]: 30000 ± 7400 ng·h/mL | Cmax [1, 8]: 3590 ± 850 ng/mL | Half-life (beta half-life) [1, 8]: 21.4 ± 18.2 h | time points where plasma concentrations were below LOD ([3]; single gavage 300 mg/kg group): 0.0333 h

Structure (SMILES): CC(C)(C)c1ccc(O)c(-n2nc3ccccc3n2)c1 [ditBu-BZT, 2-(2H-benzotriazol-2-yl)-4-tert-butylphenol]
toxicity finding ([4]; gavage 0.1–12.5 mg/kg for 13 and 52 weeks): enlarged livers accompanied by histopathological changes | toxicity finding at the highest dose ([4]; highest dose): Increased relative organ weights (e.g., brain and testes) and hematological effects

Structure (SMILES): CCC(C)(C)c1cc(-n2nc3ccccc3n2)c(O)c(C(C)(C)CC)c1 [ditPe-BZT, 2-(2H-Benzotriazol-2-yl)-4,6-bis(1,1-dimethylpropyl)phenol]
Tmax [1, 7]: 2.96 ± 1.10 h | Half-life (beta half-life) [1, 8]: 17.1 ± 53.3 h | Oral bioavailability ([5]; 300 mg/kg): 5.53%

Structure (SMILES): CC(C)(C)c1ccc(O)c(-n2nc3ccccc3n2)c1 [tBu-BZT, 2-(2H-Benzotriazol-2-yl)-4-tert-butylphenol]
increase in AUC with a 10-fold increase in the dose ([3]; gavage 30 to 300 mg/kg): dose-proportional

Structure (SMILES): CC(C)(C)c1cc(CCC(=O)OCCCCCCOC(=O)CCc2cc(-n3nc4ccccc4n3)c(O)c(C(C)(C)C)c2)cc(-n2nc3ccccc3n2)c1O [tBuPrHexEst-BZT, 3-(2H-benzotriazol-2-yl)-5-(1,1-dimethylethyl)-4-hydroxybenzenepropanoic acid, 1,6-hexanediyl ester]
Tmax (time at which Cmax was achieved) [6]: 1 to 2 h | apparent half-life [6]: ~ 12 h | maximum blood concentration (Cmax) [6]: < 0.13 µg/g

Structure (SMILES): COC(=O)CCc1cc(-n2nc3ccccc3n2)c(O)c(C(C)(C)C)c1 [tBuPrMeEst-BZT, 3-(2H-benzotriazol-2-yl)-5-(1,1-dimethylethyl)-4-hydroxybenzenepropanoic acid, methyl ester]
Tmax (time at which Cmax was achieved) [6]: 1 to 2 h | maximum blood concentration (Cmax) [6]: < 2 µg/g

Structure (SMILES): CCCCCCCCOC(=O)CCc1cc(-n2nc3ccccc3n2)c(O)c(C(C)(C)C)c1 [tBuPrOcEst-BZT, 3-(2H-Benzotriazol-2-yl)-5-(1,1-dimethylethyl)-4-hydroxybenzenepropanoic acid, octyl ester]
AUC [2]: 13800 ± 300 ng·h/mL | Cmax [2]: 22400 ± 900 ng/mL | Half-life (gamma half-life) [2]: 19.2 ± 1.1 h | AUC ([1]; male, Sprague Dawley, 30 mg/kg): 42300 ± 11500 ng·h/mL | Cmax ([1]; male, Sprague Dawley, 30 mg/kg): 12800 ± 3100 ng/mL | Half-life (beta half-life) ([1]; male, Sprague Dawley, 30 mg/kg): 9.53 ± 1.73 h | Tmax ([1]; male, Sprague Dawley, 30 mg/kg): 1.07 ± 0.30 h | AUC [1, 9]: 294000 ± 85000 ng·h/mL | Cmax [1, 9]: 47800 ± 13500 ng/mL | Half-life (beta half-life) [1, 9]: 13.6 ± 6.4 h | Tmax [1, 9]: 1.91 ± 0.56 h | Cmax [1, 8]: 12800 to 47800 ng/mL | Tmax [1, 8]: 1.07 to 1.91 h | plasma elimination half-life (beta half-life) [1, 8]: 9.53 to 13.6 h | concentration of the parent in plasma ([1]; po): mostly below LOD | Oral bioavailability ([5]; 30 mg/kg): 23.0% | Oral bioavailability ([5]; 300 mg/kg): 16.0%
